Reference: patent US20030203908A1, “Dihydrofolate reductase inhibitors” (priority 2000, published 2003)
Values after ≈ are worked out from the molar mass of the structure shown. Like-named read-outs stand apart in the source and are kept apart here.

Columns and labels:
[1] = biological target: T1, wild-type (wt) DHFR from Plasmodium falciparum (Plasmodium falciparum, UniProt P13922, N108S/R59C); test: Inhibition of wild-type pfDHFR (spectrophotometric, Ki); assay type: biochemical;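 also: Affinity-purified enzyme, initial reaction rates measured across a range of inhibitor concentrations, Ki obtained by nonlinear least-squares fitting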
T1 construct: The Dihydrofolate Reductase Domain of Plasmodium falciparum Thymidylate Synthase-Dihydrofolate Reductase; made in house
T1 sequence (P13922 10-228 R59C/N108S): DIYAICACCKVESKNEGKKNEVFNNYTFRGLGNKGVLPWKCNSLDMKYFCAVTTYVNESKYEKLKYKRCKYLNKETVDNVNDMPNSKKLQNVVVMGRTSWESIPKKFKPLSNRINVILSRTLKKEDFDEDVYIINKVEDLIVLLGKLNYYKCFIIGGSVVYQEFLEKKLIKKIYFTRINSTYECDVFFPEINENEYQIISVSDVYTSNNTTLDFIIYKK
Description: (§1) For determination of the Ki values of a number of synthesized analogues, the assay reactions were initiated with affinity-purified enzyme (^˜0.005-0.01 U ml^−1), and the initial velocities in the presence of varying concentrations of inhibitors were analysed by non-linear least square fit using Kaleidagraph™ software.

[2] = system: resistant T9/94 strain of P. falciparum (A16V.S108T pfDHFR); test: In vitro antimalarial activity, [3H]-hypoxanthine incorporation, T9/94; assay type: cell-based, Plasmodium falciparum; conditions: resistant strain T9/94
Description: Mol. Biochem. Parasitol. […] Science, 1976, 193, 673-675]. In vitro antimalarial activity was determined by using [^3H]-hypoxanthine incorporation method [Desjardins, R. E.; Canfield, C. J.; Haynes, J. D.; Chulay, J. D. Quantitative assessment of antimalarial activity in vitro by a semiautomated microdilution technique. Antimicrob Agents Chemother. 1979, 16, 710-718]. The drugs were initially dissolved in DMSO and diluted with the culture media. Aliquots (25 μl) of drug solution of different concentrations was placed in 96-well plate together with 200 μl of 1.5% cell suspension of parasitized erythrocytes containing 1-2% parasitemia. Final concentration of DMSO was 0.1% where there was no effect on the parasite growth. The mixtures were incubated in a 3% CO2 incubator at 37° C. After 24 h of incubation, 25 μl (0.25 μCi) of [^3H]-hypoxanthine were added to each well. The mixtures were further incubated under the same condition for 18-24 h. DNA of parasites was harvested onto glass filter paper (Unifilter, Packard, USA). The filters were dried and liquid scintillation fluid was added for radioactivity measurement in a 6-probe liquid scintillation-counter (Packard, USA).

[3] = biological target: T2, A16V.S108T mutant (mut) of DHFR from Plasmodium falciparum (Plasmodium falciparum, UniProt A7UD81, A16V/S108T); test: biochemical
T2 construct: The Dihydrofolate Reductase Domain of Plasmodium falciparum Thymidylate Synthase-Dihydrofolate Reductase; made in house
T2 sequence (A7UD81 1-231 A16V/S108T): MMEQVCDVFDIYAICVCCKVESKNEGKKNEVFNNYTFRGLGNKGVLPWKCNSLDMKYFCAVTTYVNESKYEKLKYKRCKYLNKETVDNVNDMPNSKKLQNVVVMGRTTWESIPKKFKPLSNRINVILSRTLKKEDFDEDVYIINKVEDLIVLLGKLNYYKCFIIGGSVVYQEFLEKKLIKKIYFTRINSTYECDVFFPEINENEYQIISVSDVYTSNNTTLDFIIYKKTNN
Description: as §1

[4] = system: A16V.S108T mutant (mut) of DHFR from Plasmodium falciparum; test: biochemical; conditions: resistance factor
Description: as §1

[5] = system: wild-type (TM4/8.2) strain of P. falciparum; test: microbe, parasite or virus in culture; assay type: cell-based, Plasmodium falciparum
Summary of the method: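 Parasitized erythrocytes (1.5% cell suspension, 1-2% parasitemia) incubated with compound (0.1% DMSO final) at 37° C in 3% CO2 for 24 h, then pulsed with 0.25 μCi [3H]-hypoxanthine for a further 18-24 h. Parasite DNA harvested onto glass filters; incorporated radioactivity counted by liquid scintillation.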

human DHFR [6] = test: Inhibition of human DHFR (I50-derived Ki); assay type: biochemical;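 also: recombinant human DHFR expressed in E. coli and purified by methotrexate affinity chromatography, enzyme activity followed spectrophotometrically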
Description: (§2) Folic acid and NADPH, were purchased from Sigma. Dihydrofolate was prepared from folic acid dithionate reduction. Methotrexate (MTX) was from Lederle Laboratories. MTX sepharose CL-6B was prepared according to the protocol described by Dann. et al. IPTG came from Boehringer Manheim. The expression system used for recombinant human DHFR production, which includes the plasmid PB-E1/RB SII, SphI-HDHFR expressed in E. coli M15, was supplied by Santi, D. V (Department of Biochemistry and Biophysics and Department of Pharmaceutical Chemistry, University of California). Recombinant T. Cruzi DHFR-TS was produced using the system pET 11c with the insertion of the complete ORF of the gene tc-dhfrts. The resulting plasmid was called pET DT.
(§3) Human and T.cruzi DHFR were produced using inducible expression systems. For human DHFR, fresh overnight cultures of E. coli M15, transformed with the plasmid, pB-E1/RB SII, SphI-HDHFR, were grown in LB and 0.1 mg/ml ampicillin medium at 28° C. For T.cruzi DHFR-TS, cultures of E. coli, BL21 (DE3) transformed with the plasmid pETDT system were grown at 37° C. The same purification protocol was used for both systems. When OD600 was at 0.8, cells pellets were collected by centrifugation, suspended in 50 ml of LB medium, containing 0.1 mg/ml of ampicillin. 10 ml of this preinocule was added to 2 litres of LB medium. Cultures were shaken at 28° C. or 37° C. (for human and T. cruzi DHFR respectively) and induction with IPTG ImM was performed when OD600 reached 0.8. After IPTG induction, cells were grown overnight in a shaker at 28° C. or 5 hours at 28° C. or 37° C. (for human and T. cruzi DHFR respectively) and then harvested by centrifugation.
(§4) Cell pellets were suspended in sonication buffer (2× TES DHFR:TES 100 mM, 2-mercaptoethanol 150 mM, EDTA 2 mM pH=7) containing protease inhibitors.
(§5) Crude extract was circulated through the MTX-Sepharose column at 4° C. at a flow rate of 0.2 ml/min until the protein was bound to the resin. The column was washed with an excess of buffer B (KH2PO410 mM pH 7, KC1 1M). Protein was eluted at 0.2 min/ml with an elution buffer (100 mM TES, 10 mM DTT, 2 mM EDTA, DHF 8.5 mM), the elution profile was collected in 1 ml fractions using a Pharmacia LKB Frac 200 collector. Finally, the protein was desalted using molecular size exclusion chromatography in a Pharmacia G-25 column. Fractions containing DHFR activity were pooled and concentrated by ultrafiltration using centripreps Amicon.
(§6) The purity of the protein preparation was assessed by detection of a single band of the correct molecular weight stained with coomasie blue following a 12% SDS-PAGE. Protein concentration was determined by the method of Bradford using a BSA as a standard. DHFR activity was measured spectrophotometrically by monitoring the decrease in absorbance at 340 mm. […] One unit of enzyme, is defined as the amount of enzyme which produces 1 nmol of product per min using ε of 12300M^−1 at 340 nm.
(§7) Inhibition of dihydrofolate reductases by 1,2-dihydro-1,3,5 triazines was analysed with T. cruzi and human DHFR.
(§8) DHFR assays contained 30 mM dihydrofolate, 0.1 mM NADPH, 50 mM TES buffer pH 7, 75 mM 2-mercaptoethanol and specified amounts of inhibitors. The reaction was initiated by addition of 2.8 or 2.3 units of T. cruzi and human, respectively, and monitored at 340 nm.
(§9) Selective inhibition of dihydrofolate reductase by 1,2-dihydro-1,3,5-triazines was analysed with T. cruzi and human DHFR. DHFR assays contained 30 μM dihydrofolate, 0.1 mM NADPH, 50 mM TES buffer pH 7, 75 mM β-mercaptoethanol and specified amounts of inhibitors. The reaction was initiated by addition of 2.8 or 2.3 units of T. cruzi and human enzyme, respectively, and monitored at 340 nm. […] KiI 50=[I]0.5/((1+[S])/Km)

human DHFR [7] = biological target: T3, human DHFR (Homo sapiens, UniProt P00374); test: Inhibition of human DHFR (I50-derived Ki); assay type: biochemical;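 also: recombinant human DHFR expressed in E. coli and purified by methotrexate affinity chromatography, enzyme activity followed spectrophotometrically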
T3 construct: made in house; host or cells: E. coli M15
T3 sequence (P00374 1-187): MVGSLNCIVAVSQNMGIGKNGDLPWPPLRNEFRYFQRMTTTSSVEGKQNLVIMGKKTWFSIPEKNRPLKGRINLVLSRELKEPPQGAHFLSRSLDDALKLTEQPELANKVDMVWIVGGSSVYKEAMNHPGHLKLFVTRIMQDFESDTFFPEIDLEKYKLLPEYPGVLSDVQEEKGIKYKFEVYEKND
Description: as §2, §3, §4, §5, §6, §7, §8, §9

[8] = biological target: T4, DHFR-TS from Trypanosoma cruzi (Trypanosoma cruzi, UniProt Q27793); test: Inhibition of T. cruzi DHFR-TS (I50-derived Ki);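 as to all read-outs here: enzymes were recombinant T. cruzi DHFR-TS and human DHFR, both expressed in E. coli and purified on a methotrexate affinity column, with dihydrofolate and NADPH as substrates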; assay type: biochemical; conditions: for Selectivity: human Ki / T. cruzi Ki
T4 construct: pET 11c with the insertion of the complete ORF of the gene tc-dhfrts; made in house; host or cells: E. coli BL21 (DE3)
T4 sequence (Q27793 whole entry): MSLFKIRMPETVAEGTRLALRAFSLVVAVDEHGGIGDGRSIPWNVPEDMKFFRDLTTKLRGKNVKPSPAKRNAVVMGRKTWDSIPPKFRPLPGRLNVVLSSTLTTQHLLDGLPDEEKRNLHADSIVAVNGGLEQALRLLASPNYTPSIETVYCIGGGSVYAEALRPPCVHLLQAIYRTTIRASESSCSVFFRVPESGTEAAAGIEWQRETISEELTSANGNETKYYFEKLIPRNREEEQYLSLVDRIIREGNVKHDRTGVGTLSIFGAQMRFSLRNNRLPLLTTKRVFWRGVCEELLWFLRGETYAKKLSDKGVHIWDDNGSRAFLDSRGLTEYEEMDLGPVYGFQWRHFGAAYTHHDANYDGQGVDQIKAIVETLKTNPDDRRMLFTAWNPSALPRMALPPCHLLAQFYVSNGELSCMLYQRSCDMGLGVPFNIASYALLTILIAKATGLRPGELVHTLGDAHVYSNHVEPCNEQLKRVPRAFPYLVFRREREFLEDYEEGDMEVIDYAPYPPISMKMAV

Plasmodium berghei = test: In vivo activity against Plasmodium berghei in mice; conditions: P. berghei
Description: These analogues were tested in vivo in a mice against Plasmodium berghei.

[9] = system: P. falciparum 3D7 (wild-type strain); test: In vitro inhibition of P. falciparum 3D7; assay type: cell-based, Plasmodium falciparum; conditions: 3D7 strain; for IC50: Plasmodium falciparum, read-out: Pf-3D7 ED50
[10] = system: P. falciparum FCR3 (resistant strain containing the A16V.S108T DHFR mutant); test: In vitro inhibition of P. falciparum FCR3; assay type: cell-based, Plasmodium falciparum; conditions: for IC50: Plasmodium falciparum, read-out: Pf-FCR3 ED50
[11] = A16V.S108T mutant pfDHFR, read-out: Ki(mut)
[12] = T. cruzi DHFR-TS, read-out: T. cruzi Ki (I50)
[13] = Plasmodium falciparum, wild-type strain TM4/8.2

CCCCOc1ccc(C2N=C(N)N=C(N)N2OCCCOc2cc(Cl)c(Cl)cc2Cl)cc1 (centres unmarked) [1-[3′-(2,4,5-trichlorophenoxy)-n-propyloxy]-2-p-n-butyloxyphenyl-4,6-diamino-1,2-dihydro-1,3,5-triazine]
Ki ([1]; read-out: Ki(wt)): 3.2 ± 0.4 nM | IC50 [2]: 41 nM | Ki [3, 11]: 8.2 ± 0.8 nM | Ki(mut)/Ki(wt) [4]: 2.6 | IC50 ([5]; wild-type strain TM4/8.2): 1490 nM

CCCOc1ccc(C2N=C(N)N=C(N)N2OCCCOc2cc(Cl)c(Cl)cc2Cl)cc1 (centres unmarked) [1-[3′-(2,4,5-trichlorophenoxy)-n-propyloxy]-2-p-n-propyloxyphenyl-4,6-diamino-1,2-dihydro-1,3,5-triazine]
Ki ([1]; read-out: Ki(wt)): 1.7 ± 0.3 nM | IC50 [2]: 29 nM | Ki [3, 11]: 6.1 ± 0.7 nM | Ki(mut)/Ki(wt) [4]: 3.6 | IC50 ([5]; wild-type strain TM4/8.2): 948 nM

NC1=NC(c2ccc(Cl)cc2)N(c2ccc(Cl)cc2)C(N)=N1 (centres unmarked) [(Ia) R2=p-chlorophenyl]
Ki ([1]; read-out: Ki(wt)): 7.5 ± 0.9 nM | Ki (human)/Ki (P. falc. mut) (human DHFR [6]): 28 | Ki (human)/Ki (P. falc. wt) (human DHFR [6]): 395 | Ki (human)/Ki (T. cruzi) (human DHFR [6]): 11.0 | Ki (human DHFR [7]; human DHFR, read-out: Human Ki (I50)): 2960 nM | IC50 [2]: 386 nM | Ki [3, 11]: 105 ± 17 nM | Ki(mut)/Ki(wt) [4]: 14.0 | Ki [8, 12]: 270 nM | Selectivity [8]: 11 | IC50 ([5]; wild-type strain TM4/8.2): 499 nM

NC1=NC(c2cccc(Oc3ccc(Cl)c(Cl)c3)c2)N(c2cccc(Cl)c2)C(N)=N1 (centres unmarked) [(Ib) R2=3-(3,4-dichlorophenoxy)phenyl]
Ki ([1]; Ki(wt) nM): 2.2 ± 0.2 nM | Ki [3]: 9.1 ± 0.7 nM | Ki(mut)/Ki(wt) [4]: 4.1 | Mean % infected RBC (Plasmodium berghei; 25 mg/kg daily x4): 13.0% | IC50 [5, 13]: 3900 nM

NC1=NC(c2cccc(Oc3ccc(Cl)cc3)c2)N(c2cccc(Cl)c2)C(N)=N1 (centres unmarked) [(Ib) R2=3-(4-chlorophenoxy)phenyl]
Ki ([1]; Ki(wt) nM): 1.3 nM | IC50 [9]: 0.36 µg/mL (≈ 0.844 µM) | Ki [3]: 3.5 ± 0.5 nM | Ki(mut)/Ki(wt) [4]: 2.7 | Mean % infected RBC (Plasmodium berghei; 25 mg/kg daily x4): 5.0% | IC50 ([10]; in vitro, FCR3 strain): 0.078 µg/mL (≈ 0.183 µM) | IC50 [5, 13]: 3950 nM

COc1ccc(Oc2cccc(C3N=C(N)N=C(N)N3c3cccc(Cl)c3)c2)cc1 (centres unmarked) [(Ib) R2=3-(4-methoxyphenoxy)phenyl]
Ki ([1]; Ki(wt) nM): 2.3 ± 0.1 nM | Ki [3]: 2.5 ± 0.3 nM | Ki(mut)/Ki(wt) [4]: 1.1 | Mean % infected RBC (Plasmodium berghei; 25 mg/kg daily x4): 1.94% | IC50 [5, 13]: 4120 nM

NC1=NC(c2cccc(Oc3ccccc3)c2)N(c2cccc(Cl)c2)C(N)=N1 (centres unmarked) [(Ib) R2=3-phenoxyphenyl, 1-m-chlorophenyl-2-m-phenoxyphenyl-4,6-diamino-1,2-dihydro-1,3,5-triazine]
Ki ([1]; Ki(wt) nM): 1 ± 0.2 nM | IC50 [9]: 0.22 µg/mL (≈ 0.561 µM) | Ki (human)/Ki (P. falc. mut) (human DHFR [6]): 0.8 | Ki (human)/Ki (P. falc. wt) (human DHFR [6]): 1.8 | Ki (human)/Ki (T. cruzi) (human DHFR [6]): 0.5 | Ki (human DHFR [7]; Human Ki (I50)(nM), human DHFR): 2 nM | inhibitory activity against human DHFR (human DHFR [7]; compared with methotrexate): comparable to that of methotrexate | Ki [3]: 1.9 nM | Ki(mut)/Ki(wt) [4]: 1.9 | Mean % infected RBC (Plasmodium berghei; 25 mg/kg daily x4): 7.05% | Ki [8]: 4 nM | Selectivity [8]: 0.5 | ED50 against the resistant Pf FCR-3 strain in vitro [10]: 0.8 nM | IC50 ([10]; in vitro, FCR3 strain): 0.0008 µg/mL (≈ 0.00204 µM) | IC50 [5, 13]: 2300 nM

NC1=NC(c2ccc(Oc3ccccc3)cc2)N(c2cccc(Cl)c2)C(N)=N1 (centres unmarked) [(Ib) R2=4-phenoxyphenyl]
Ki ([1]; Ki(wt) nM): 0.7 nM | Ki [3]: 2.7 ± 0.4 nM | Ki(mut)/Ki(wt) [4]: 3.9 | Mean % infected RBC (Plasmodium berghei; 25 mg/kg, schedule b): 11.42% | IC50 ([10]; in vitro, FCR3 strain): 0.004 µg/mL (≈ 0.0102 µM) | IC50 [5, 13]: 647 nM

NC1=NC(c2cccc(OCc3ccccc3)c2)N(c2cccc(COc3cc(Cl)c(Cl)cc3Cl)c2)C(N)=N1 (centres unmarked) [(Id1) R2=3-benzyloxyphenyl]
Ki ([1]; read-out: Ki(wt)): 10.3 ± 2.6 nM | Ki (human)/Ki (P. falc. mut) (human DHFR [6]): 1.9 | Ki (human)/Ki (P. falc. wt) (human DHFR [6]): 2.1 | Ki (human)/Ki (T. cruzi) (human DHFR [6]): 0.7 | Ki (human DHFR [7]; read-out: Human Ki (I50)): 22 nM | IC50 [2]: 1730 nM | Ki [3, 11]: 11.7 ± 3.2 nM | Ki(mut)/Ki(wt) [4]: 1.1 | Ki [8, 12]: 30 nM | Selectivity [8]: 0.73 | IC50 ([5]; wild-type strain TM4/8.2): 14000 nM

NC1=NC(c2cccc(Oc3ccc(Cl)cc3)c2)N(c2cccc(/C=C/c3ccc(Cl)cc3Cl)c2)C(N)=N1 (centres unmarked) [(Id2) R2=3-(4-chlorophenoxy)phenyl]
Ki ([1]; read-out: Ki(wt)): 219 ± 11 nM | IC50 [2]: > 10000 nM | Ki [3, 11]: 210 ± 18 nM | Ki(mut)/Ki(wt) [4]: 0.9 | IC50 ([5]; wild-type strain TM4/8.2): > 10000 nM

NC1=NC(c2cccc(Oc3ccccc3)c2)N(c2cccc(/C=C/c3ccc(Cl)cc3Cl)c2)C(N)=N1 (centres unmarked) [(Id2) R2=3-phenoxyphenyl]
Ki ([1]; read-out: Ki(wt)): 6.5 ± 0.5 nM | IC50 [2]: 4320 nM | Ki [3, 11]: 10.8 ± 1.2 nM | Ki(mut)/Ki(wt) [4]: 1.7 | IC50 ([5]; wild-type strain TM4/8.2): 4110 nM

CCCOc1cccc(C2N=C(N)N=C(N)N2c2cccc(/C=C/c3ccc(Cl)cc3Cl)c2)c1 (centres unmarked) [(Id2) R2=3-propyloxyphenyl]
Ki ([1]; read-out: Ki(wt)): 1.3 ± 0.3 nM | IC50 [2]: 5410 nM | Ki [3, 11]: 19.2 ± 2.7 nM | Ki(mut)/Ki(wt) [4]: 14.8 | IC50 ([5]; wild-type strain TM4/8.2): 25400 nM

CCN(CC)CCCC(C)Nc1ccnc2cc(Cl)ccc12 (centres unmarked) [Chloroquine, reference compound]
Mean % infected RBC (Plasmodium berghei; 10 mg/kg daily x4): 3.58%

NC1=NC(c2cccc(OCc3ccccc3)c2)N(c2ccc(OCc3ccccc3)cc2)C(N)=N1 (centres unmarked) [R2=3-BnOC6H4, X=BnO, Y=H, 1-p-benzyloxyphenyl-2-m-benzyloxyphenyl-4,6-diamino-1,2-dihydro-1,3,5-triazine]
Ki ([1]; read-out: Ki(wt)): 1.3 ± 0.2 nM | Ki (human)/Ki (P. falc. mut) (human DHFR [6]): 56 | Ki (human)/Ki (P. falc. wt) (human DHFR [6]): 245 | Ki (human)/Ki (T. cruzi) (human DHFR [6]): 8.0 | Ki (human DHFR [7]; read-out: Human Ki (I50)): 319 nM | IC50 [2]: 255 nM | Ki [3, 11]: 5.7 ± 0.6 nM | Ki(mut)/Ki(wt) [4]: 4.4 | Ki [8, 12]: 40 nM | Selectivity [8]: 8.0 | IC50 [5]: 3450 nM

NC1=NC(c2ccc(Oc3ccc(C(F)(F)F)cc3)cc2)N(c2cccc(Cl)c2)C(N)=N1 (centres unmarked) [R2=4-(4-CF3PhO)C6H4, X=H, Y=Cl]
Mean % infected RBC (Plasmodium berghei; 24 mg/kg daily x4): 4.4%

CCCCOc1ccc(C2N=C(N)N=C(N)N2c2cccc(Cl)c2)cc1 (centres unmarked) [R2=4-nBuOC6H4, X=H, Y=Cl]
Pf-3D7 ED50 [9]: 0.3 µg/mL | Mean % infected RBC (Plasmodium berghei; 25 mg/kg daily x4): 16.46% | Pf-FCR3 ED50 ([10]; in vitro, FCR3 strain): 0.0038 µg/mL
